# Read-outs that look alike come from different tables or passages of the source. Ends that are not written are not given here.
# Test: Phase I plasma pharmacokinetics
# Format: in vivo, human
# Conditions: plasma LC-MS; for AUC(0-t) / Cmax / Tmax: plasma
# Experimental: Blood samples were taken on Days 1, 3, 8 and 10 of Cycle 1 to assess the pharmacokinetic (PK) profile of SOR-C13 at the various doses used. Plasma samples for the IV 20 min infusion were taken at pre-infusion, 5, 15 min after the start of infusion and post-infusion at 2, 5, 10 and 30 min and 1, 4 h. Plasma samples for SOR-C13 analysis for the 90 min infusion were taken pre-infusion, at 5, 15 and 45 min after the start of infusion, and at 2, 5, 10 and 30 min post-infusion. Since the infusion for the majority of patients, and further studies will be IV 90 min only PK data for this infusion time are presented. Validated liquid chromatography-mass spectrometry analysis provided the plasma concentration/time data.
# [1] = Cohort 3: 1.375 mg/kg, N = 3, 90-min IV infusion, Cycle 1 Day 8
sequence,measurement,setting,value
KEFLHPSKVDLPR [SOR-C13],time after start of infusion by which steady state was achieved,90-min infusion,≤ 15 min
same,"Peak plasma concentration, Median","Cohort 3: 1.375 mg/kg, N = 3, 90-min IV infusion, Cycle 1 Day 1",252.50 ng/mL
same,"Peak plasma concentration, Mean (SD)",[1],251.03 (75.53) ng/mL
same,"Time to peak plasma concentration, Median",[1],0.750 h
same,"Time to peak plasma concentration, Median","Cohort 4: 2.75 mg/kg, N = 6, 90-min IV infusion, Cycle 1 Day 3",0.750 h
same,"Time to peak plasma concentration, Median","Cohort 5: 4.13 mg/kg, N = 3, 90-min IV infusion, Cycle 1 Day 10",0.250 h
same,"Time to peak plasma concentration, Median","Cohort 6: 6.2 mg/kg, N = 6, 90-min IV infusion, Cycle 1 Day 8",0.750 h
same,half-life,"human, iv, patients, 90-min infusion, read-out: elimination half-life (Thalf), estimated overall",< 5 min
same,AUC(0-t),"human, iv, 1.375 mg/kg, Cohort 3: 1.375 mg/kg, N = 3, 90-min IV infusion, Cycle 1 Day 1, read-out: AUCtau, Mean (SD)",256 ng·h/mL
same,AUC(0-t),"human, iv, 1.375 mg/kg, Cohort 3: 1.375 mg/kg, N = 3, 90-min IV infusion, Cycle 1 Day 1, read-out: AUCtau, Median",263 ng·h/mL
same,Cmax,"human, iv, 1.375 mg/kg, Cohort 3: 1.375 mg/kg, N = 3, 90-min IV infusion, Cycle 1 Day 1, read-out: Peak plasma concentration, Mean (SD)",244 ng/mL
same,Tmax,"human, iv, 1.375 mg/kg, Cohort 3: 1.375 mg/kg, N = 3, 90-min IV infusion, Cycle 1 Day 1, read-out: Time to peak plasma concentration, Mean (SD)",31.6 min
same,Tmax,"human, iv, 1.375 mg/kg, Cohort 3: 1.375 mg/kg, N = 3, 90-min IV infusion, Cycle 1 Day 1, read-out: Time to peak plasma concentration, Median",45 min
same,AUC(0-t),"human, iv, 1.375 mg/kg, Cohort 3: 1.375 mg/kg, N = 3, 90-min IV infusion, Cycle 1 Day 3, read-out: AUCtau, Mean (SD)",148 ng·h/mL
same,AUC(0-t),"human, iv, 1.375 mg/kg, Cohort 3: 1.375 mg/kg, N = 3, 90-min IV infusion, Cycle 1 Day 3, read-out: AUCtau, Median",168 ng·h/mL
same,Cmax,"human, iv, 1.375 mg/kg, Cohort 3: 1.375 mg/kg, N = 3, 90-min IV infusion, Cycle 1 Day 3, read-out: Peak plasma concentration, Mean (SD)",193 ng/mL
same,Cmax,"human, iv, 1.375 mg/kg, Cohort 3: 1.375 mg/kg, N = 3, 90-min IV infusion, Cycle 1 Day 3, read-out: Peak plasma concentration, Median",160 ng/mL
same,Tmax,"human, iv, 1.375 mg/kg, Cohort 3: 1.375 mg/kg, N = 3, 90-min IV infusion, Cycle 1 Day 3, read-out: Time to peak plasma concentration, Mean (SD)",11.6 min
same,Tmax,"human, iv, 1.375 mg/kg, Cohort 3: 1.375 mg/kg, N = 3, 90-min IV infusion, Cycle 1 Day 3, read-out: Time to peak plasma concentration, Median",15 min
same,AUC(0-t),"human, iv, 1.375 mg/kg, Cohort 3: 1.375 mg/kg, N = 3, 90-min IV infusion, Cycle 1 Day 8, read-out: AUCtau, Mean (SD)",220 ng·h/mL
same,AUC(0-t),"human, iv, 1.375 mg/kg, Cohort 3: 1.375 mg/kg, N = 3, 90-min IV infusion, Cycle 1 Day 8, read-out: AUCtau, Median",230 ng·h/mL
same,Cmax,"human, iv, 1.375 mg/kg, Cohort 3: 1.375 mg/kg, N = 3, 90-min IV infusion, Cycle 1 Day 8, read-out: Peak plasma concentration, Median",237 ng/mL
same,Tmax,"human, iv, 1.375 mg/kg, Cohort 3: 1.375 mg/kg, N = 3, 90-min IV infusion, Cycle 1 Day 8, read-out: Time to peak plasma concentration, Mean (SD)",47.2 min
same,AUC(0-t),"human, iv, 1.375 mg/kg, Cohort 3: 1.375 mg/kg, N = 3, 90-min IV infusion, Cycle 1 Day 10, read-out: AUCtau, Mean (SD)",184 ng·h/mL
same,AUC(0-t),"human, iv, 1.375 mg/kg, Cohort 3: 1.375 mg/kg, N = 3, 90-min IV infusion, Cycle 1 Day 10, read-out: AUCtau, Median",215 ng·h/mL
same,Cmax,"human, iv, 1.375 mg/kg, Cohort 3: 1.375 mg/kg, N = 3, 90-min IV infusion, Cycle 1 Day 10, read-out: Peak plasma concentration, Mean (SD)",224 ng/mL
same,Cmax,"human, iv, 1.375 mg/kg, Cohort 3: 1.375 mg/kg, N = 3, 90-min IV infusion, Cycle 1 Day 10, read-out: Peak plasma concentration, Median",181 ng/mL
same,Tmax,"human, iv, 1.375 mg/kg, Cohort 3: 1.375 mg/kg, N = 3, 90-min IV infusion, Cycle 1 Day 10, read-out: Time to peak plasma concentration, Mean (SD)",35 min
same,AUC(0-t),"human, iv, 2.75 mg/kg, Cohort 4: 2.75 mg/kg, N = 6, 90-min IV infusion, Cycle 1 Day 1, read-out: AUCtau, Mean (SD)",435 ng·h/mL
same,AUC(0-t),"human, iv, 2.75 mg/kg, Cohort 4: 2.75 mg/kg, N = 6, 90-min IV infusion, Cycle 1 Day 1, read-out: AUCtau, Median",103 ng·h/mL
same,Cmax,"human, iv, 2.75 mg/kg, Cohort 4: 2.75 mg/kg, N = 6, 90-min IV infusion, Cycle 1 Day 1, read-out: Peak plasma concentration, Mean (SD)",524 ng/mL
same,Cmax,"human, iv, 2.75 mg/kg, Cohort 4: 2.75 mg/kg, N = 6, 90-min IV infusion, Cycle 1 Day 1, read-out: Peak plasma concentration, Median",194 ng/mL
same,Tmax,"human, iv, 2.75 mg/kg, Cohort 4: 2.75 mg/kg, N = 6, 90-min IV infusion, Cycle 1 Day 1, read-out: Time to peak plasma concentration, Mean (SD)",39.9 min
same,Tmax,"human, iv, 2.75 mg/kg, Cohort 4: 2.75 mg/kg, N = 6, 90-min IV infusion, Cycle 1 Day 1, read-out: Time to peak plasma concentration, Median",45 min
same,AUC(0-t),"human, iv, 2.75 mg/kg, Cohort 4: 2.75 mg/kg, N = 6, 90-min IV infusion, Cycle 1 Day 3, read-out: AUCtau, Mean (SD)",365 ng·h/mL
same,AUC(0-t),"human, iv, 2.75 mg/kg, Cohort 4: 2.75 mg/kg, N = 6, 90-min IV infusion, Cycle 1 Day 3, read-out: AUCtau, Median",250 ng·h/mL
same,Cmax,"human, iv, 2.75 mg/kg, Cohort 4: 2.75 mg/kg, N = 6, 90-min IV infusion, Cycle 1 Day 3, read-out: Peak plasma concentration, Mean (SD)",374 ng/mL
same,Cmax,"human, iv, 2.75 mg/kg, Cohort 4: 2.75 mg/kg, N = 6, 90-min IV infusion, Cycle 1 Day 3, read-out: Peak plasma concentration, Median",265 ng/mL
same,Tmax,"human, iv, 2.75 mg/kg, Cohort 4: 2.75 mg/kg, N = 6, 90-min IV infusion, Cycle 1 Day 3, read-out: Time to peak plasma concentration, Mean (SD)",40.3 min
same,AUC(0-t),"human, iv, 2.75 mg/kg, Cohort 4: 2.75 mg/kg, N = 6, 90-min IV infusion, Cycle 1 Day 8, read-out: AUCtau, Mean (SD)",215 ng·h/mL
same,AUC(0-t),"human, iv, 2.75 mg/kg, Cohort 4: 2.75 mg/kg, N = 6, 90-min IV infusion, Cycle 1 Day 8, read-out: AUCtau, Median",247 ng·h/mL
same,Cmax,"human, iv, 2.75 mg/kg, Cohort 4: 2.75 mg/kg, N = 6, 90-min IV infusion, Cycle 1 Day 8, read-out: Peak plasma concentration, Mean (SD)",239 ng/mL
same,Cmax,"human, iv, 2.75 mg/kg, Cohort 4: 2.75 mg/kg, N = 6, 90-min IV infusion, Cycle 1 Day 8, read-out: Peak plasma concentration, Median",282 ng/mL
same,Tmax,"human, iv, 2.75 mg/kg, Cohort 4: 2.75 mg/kg, N = 6, 90-min IV infusion, Cycle 1 Day 8, read-out: Time to peak plasma concentration, Mean (SD)",21.6 min
same,Tmax,"human, iv, 2.75 mg/kg, Cohort 4: 2.75 mg/kg, N = 6, 90-min IV infusion, Cycle 1 Day 8, read-out: Time to peak plasma concentration, Median",15 min
same,AUC(0-t),"human, iv, 2.75 mg/kg, Cohort 4: 2.75 mg/kg, N = 6, 90-min IV infusion, Cycle 1 Day 10, read-out: AUCtau, Mean (SD)",274 ng·h/mL
same,AUC(0-t),"human, iv, 2.75 mg/kg, Cohort 4: 2.75 mg/kg, N = 6, 90-min IV infusion, Cycle 1 Day 10, read-out: AUCtau, Median",192 ng·h/mL
same,Cmax,"human, iv, 2.75 mg/kg, Cohort 4: 2.75 mg/kg, N = 6, 90-min IV infusion, Cycle 1 Day 10, read-out: Peak plasma concentration, Mean (SD)",290 ng/mL
